In patent publication US20070270462A1, “8-hydroxyquinoline compounds for treating a polyglutamine (polyQ)-expansion disease” (priority 2005, published 2007):

What was measured:
[1] = system: egfp-alone; assay: Western blotting of cell extracts, egfp-alone expression; format: cell-based
Description: (§1) PolyQ-htt-GFP fusion constructs, in which the polyglutamine region is encoded by CAA and CAG-containing tandem repeats ([…]) [SEQ ID NO: 1], human polyglutaminen, were obtained from the Hereditary Disease Foundation, Santa Monica, Calif., USA. PC12 and HEK293 cells were maintained in MEM supplemented with 10% v/v FBS, switched to Opti-MEM without serum for 6 hrs during transfection using Lipofectamine 2000 (Invitrogen, Carlsbad, Calif., USA), and returned to serum-containing medium thereafter (up to 48 hours). […] Control cultures received equivalent amounts of DMSO-containing vehicle (<0.1% w/v DMSO, final concentration).
HEK293 or PC12 cells were lysed in PBS buffer containing 1% v/v Triton X-100 and protease inhibitor cocktail (Roche, Indianapolis, Ind.), and passed through a 28 gauge needle to ensure the release of Htt inclusions from the nuclei. Whole mouse brains were homogenized in 50 mM Tris-HCl (pH 7.4), 150 mM NaCl, 1% v/v Triton X-100 and complete protease inhibitor cocktail. Brain homogenate was pre-cleared by centrifuging at 7,500 g for 90 s at 4° C. The supernatant was passed through a 28-gauge needle and boiled in SDS sample buffer for 10 min. Fifty μg of total protein was loaded onto 10% w/v SDS gel containing a 4% w/v stacking gel. […]

[2] = system: Htt exon1-Q103-egfp transfected PC12 cells; assay: cells; format: cell-based
Description: as §1
Plasma membrane integrity was evaluated using propidium iodide at 20 μg/ml final concentration. Approximately 200 cells transfected with the Htt^exon1-Q103-egf plasmid were counted for each treatment group 48 hr after transfection. Cells were at that time as expanded protein accumulation had reached a plateau, and 90% of cell death occurred by this time point. The experiment was repeated twice and counts were averaged. Counts of transfected cells were averaged from three independent, randomly-selected fields. ImageJ 1.32j (National Institutes of Health, USA), was used to measure the size of the lateral ventricles (n≧6 for each group). […]

[3] = system: Htt exon1-Q103-egfp; assay: Proteasome inhibitor MG132 treatment of CQ-treated Htt exon1-Q103-egfp-expressing HEK293 cells; format: cell-based; settings: pan-proteasome inhibitor MG132
Experimental: HEK293 or PC12 cells were lysed in PBS buffer containing 1% v/v Triton X-100 and protease inhibitor cocktail (Roche, Indianapolis, Ind.), and passed through a 28 gauge needle to ensure the release of Htt inclusions from the nuclei. Whole mouse brains were homogenized in 50 mM Tris-HCl (pH 7.4), 150 mM NaCl, 1% v/v Triton X-100 and complete protease inhibitor cocktail. Brain homogenate was pre-cleared by centrifuging at 7,500 g for 90 s at 4° C. The supernatant was passed through a 28-gauge needle and boiled in SDS sample buffer for 10 min. Fifty μg of total protein was loaded onto 10% w/v SDS gel containing a 4% w/v stacking gel. Monoclonal antibodies anti-polyglutamine (1:2,000), anti-GAPDH (1:10,000), anti-GFP (1:4,000), and anti-Htt (EM48) in 1:1000 dilution were used for immunoblotting. All western blot experiments were performed at least three times and band intensities were averaged.
In examining potential mechanisms for the effects of CQ on Htt accumulation, we considered the possibilities that CQ might act to inhibit Htt aggregation or directly influence Htt synthesis or degradation. […] Therefore, we focused on the aspects of Htt synthesis and turnover. To determine whether CQ might down-regulate polyQ-Htt expression at the transcriptional level, we examined the amount of Htt^exon1-Q103-egfp mRNA present after 48 hrs of transfection by Northern analysis. […]

[4] = system: Htt exon1-Q103-egfp; assay: Pulse-chase assay of Htt exon1-Q103-egfp turnover; format: cell-based; settings: HEK293 cells, 4 μM CQ
Experimental: HEK293 cells at 90% confluence on 100 mm plates coated with poly-D-lysine (0.1 μg/μl) were transfected for 4 hr in Opti-MEM medium before replacement of the medium with MEM supplemented with 10% v/v FBS. After another 5 hr incubation, cells were trypsinized and replated in two wells of a 6-well plate, then incubated for another 14 hr at 37° C. The medium was replaced with methionine-free MEM medium supplemented with 5% v/v FBS, and cells incubated for 1.5 hr with 4 μM of CQ or DMSO vehicle added during the last 30 min of incubation. One mCi of Smethionine (Amersham Biosciences, Piscataway, N.J.) in 12 ml of methionine-free MEM was prepared as a pulse stock medium. Cells were pulsed for 10 min by replacing the medium with 1 ml of the pulse stock medium. At different time points, cells were washed twice with ice-cold PBS and lysed in 1 ml of IP lysis buffer (50 mM Tris-HCl, pH 7.5, 150 mM NaCl, 1% v/v NP-40, 0.5% v/v sodium deoxycholate, 1 tab mini-complete protease inhibitor/10 ml buffer). Cells were harvested by scraping, placed in 1.5 ml microcentrifuge tube, and lysed with constant agitation at 4° C. for at least 30 min before immunoprecipitation of the Htt^exon1-Q103-egfp protein using anti-polyglutamine antibody and protein G agarose beads (Roche, Indianapolis, Ind., USA). Assays were performed at least three times. […]

[5] = system: aggregated huntingtin; assay: Western blotting of aggregated huntingtin in whole-brain extracts of R6/2 mice; format: in vivo, mouse; settings: 8 weeks daily oral CQ 30 mg/kg/day
Experimental: CQ in water was orally administered to mice at 30 mg/kg/day starting at 3 weeks of age and continued until the mice were deceased or sacrificed for tissues. Littermate R6/2 mice were gavaged with water vehicle alone. At the end of CQ treatment mice were anesthetized and transcardially perfused with PBS followed by 4% v/v paraformaldehyde.

Oc1c(I)cc(Cl)c2cccnc12 [CQ, 5-chloro-7-iodo-8-hydroxy-quinoline]
inhibition of egfp-alone expression [1]: not observed | EC50 ([2]; Rattus norvegicus, PC-12, Htt exon1-Q103-egfp cells, PI staining, 48 hr after transfection, read-out: cell survival improvement, half maximal effect): 1000 to 2000 nM | CQ concentration at which cell death began to increase (toxic effects of CQ) ([2]; rat, 48 h): 8 µM | suppression of exon1-Q103-egfp protein production by CQ under MG132 treatment [3]: not affected | rates of Q103-egfp degradation in the presence of CQ [4]: No significant differences | reduction in the quantity of aggregated huntingtin [5]: 3.9 fold
